Source: US11136320B2, “Fused ring derivative used as FGFR4 inhibitor” (JACOBIO PHARMACEUTICALS CO., LTD., priority 2019, dated 2021)
Where a name gives a salt, the structure may show the parent alone. Read-outs that look alike come from different tables or passages of the source. Values belong to the compound of their own block, whether it stands above or below them.

Assays:
FGFR4 kinase [1] = biological target: T1, FGFR4 kinase (Homo sapiens (Human), UniProt P22455); experiment: biochemical
[2] = tested on: Hepatoma cell Hep3B (high expression of FGFR4 and FGF19); experiment: Hepatoma cell proliferation inhibition experiment (MTS method); format: cell-based; conditions: for IC50: Homo sapiens, Hep3B, read-out: Hep3B(IC50 μM)
Text: In this experiment, the MTS method was used to test the inhibitory effect of the compounds on the proliferation of Hepatoma cell Hep3B (high expression of FGFR4 and FGF19), and the half inhibitory concentration IC50 of the compounds to Hep3B was obtained. The Hep3B cell line was purchased from ATCC, and the complete culture medium of the Hep3B cell line was MEM+10% FBS+1% PS. MEM cell culture medium, fetal bovine serum, and trypsin were purchased from Gibco, cell culture flasks were purchased from Greiner, and disposable Cell Counting Plate and Taittinger Blue Solution were purchased from Bio-Rad.
(1) 100 μl Hepatoma cell Hep3B suspension was seeded in a 96-well cell culture plate, and the density of each well was 2.0×10^4 cells/ml.
(3) A mixture of MTS (3-(4,5-dimethylthiazol-2-yl)-5-(3-carboxymethoxyphenyl)-2-(4-sulfophenyl)-2H-tetrazolium)/PMS (phenazine methosulfate) was added into each well for coloration, and MTS/PMS in the mixture was at a ratio of 20:1 (ml:ml). 30 μl of the mixture was added into each well of the culture plate above mentioned in step (2), then the culture plate was incubated for 3 h in the incubator.
(5) The inhibition rate was calculated by the […];
(6) According to the inhibition rate of the different concentrations, the IC50 values of the compounds were obtained by curve fitting.

PK analysis of rats = format: in vivo; conditions: p.o. (10 mg/kg); for AUC(0-t) / Cmax: rat, plasma, po; for AUC(0-t): read-out: Curve area AUC0-24 h; for Cmax: read-out: Drug concentration in blood Cmax
Protocol: In the present invention, the pharmacokinetics experiment of the compounds in rats was performed using the SD rats (Vitolihua).
(1) Mode of administration: single gavage administration and intravenous injection administration.
(2) Dosage: 10 mg/kg in the gavage administration, 3 mg/kg in the intravenous injection administration.
Gavage administration: before administration, 15 min, 30 min, 1 h, 2 h, 4 h, 6 h, 8 h, 24 h; […]
(4) Sample processing: 200 μL of orbital blood was collected at each sampling time point. After anticoagulation with heparin, the blood was centrifuged at 5500 rpm for 10 min, and 60 μL of the supernatant was taken and put into the refrigerator at −80° C. for waiting for testing.
Samples obtained after administration of Compound 1 were tested using 4000 LC-MS/MS analyzer, wherein, the chromatographic separation conditions for testing were:
Samples obtained after administration of Compound 7 were tested using 4000 LC-MS/MS analyzer, wherein, the chromatographic separation conditions for testing were:
Samples obtained after administration of Compound 16 were tested using 4000 LC-MS/MS analyzer, wherein, the chromatographic separation conditions for testing were: […]

FGFR4 kinase [3] = biological target: T1, FGFR4 kinase

T1 sequence (P22455 22-802): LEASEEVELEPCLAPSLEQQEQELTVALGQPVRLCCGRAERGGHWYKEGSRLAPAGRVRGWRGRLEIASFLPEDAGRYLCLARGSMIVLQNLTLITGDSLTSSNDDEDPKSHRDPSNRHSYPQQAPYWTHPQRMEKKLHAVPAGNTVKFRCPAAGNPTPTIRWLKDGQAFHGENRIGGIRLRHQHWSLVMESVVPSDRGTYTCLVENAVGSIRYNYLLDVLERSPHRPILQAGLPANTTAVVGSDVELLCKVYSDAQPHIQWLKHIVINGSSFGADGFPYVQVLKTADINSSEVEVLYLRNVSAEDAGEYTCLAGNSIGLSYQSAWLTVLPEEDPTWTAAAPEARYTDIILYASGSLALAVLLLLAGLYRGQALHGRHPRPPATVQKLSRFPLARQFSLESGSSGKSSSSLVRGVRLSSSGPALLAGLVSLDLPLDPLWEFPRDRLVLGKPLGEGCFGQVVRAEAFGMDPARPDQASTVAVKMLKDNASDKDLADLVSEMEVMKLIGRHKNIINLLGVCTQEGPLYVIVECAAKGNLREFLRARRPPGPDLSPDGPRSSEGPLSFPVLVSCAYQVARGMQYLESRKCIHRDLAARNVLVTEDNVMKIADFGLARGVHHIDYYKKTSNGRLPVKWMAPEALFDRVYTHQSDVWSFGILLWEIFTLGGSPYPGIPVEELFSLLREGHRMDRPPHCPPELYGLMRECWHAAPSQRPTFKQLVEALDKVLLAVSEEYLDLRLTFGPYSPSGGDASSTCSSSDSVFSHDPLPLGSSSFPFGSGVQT

Compound: CSCCNc1cc(NC(=O)N2CCCc3cc(CN4CCN(C)CC4=O)c(C=O)nc32)ncc1C#N [Compound 1]
IC50 (FGFR4 kinase [1]): 1.5 nM | IC50 ([2]; 120 h incubation): 0.023 µM | exposure amount AUC0-24 h and maximum drug concentration in blood Cmax compared with the reference compound (PK analysis of rats; SD rats): significantly higher than the reference compound | AUC(0-t) (PK analysis of rats; Sprague-Dawley (SD)): 2370 ng·h/mL | Cmax (PK analysis of rats; Sprague-Dawley (SD)): 833 ng/mL

Compound: CSC(C)(C)CNc1cc(NC(=O)N2CCCc3cc(CN4CCN(C)CC4=O)c(C=O)nc32)ncc1C#N [Compound 6, N-(5-cyano-4-((2-methyl-2-(methylthio)propyl)amino)pyridin-2-yl)-7-formyl-6-((4-methyl-2-oxopiperazin-1-yl)methyl)-3,4-dihydro-1,8-naphthyridine-1 (2H)-carboxamide]
inhibitory effect on FGFR4 compared with the reference compound (FGFR4 kinase [3]): better inhibitory effect on FGFR4 than the reference compound | IC50 (FGFR4 kinase [1]): 2.1 nM | IC50 ([2]; 120 h): 0.049 µM

Compound: CSC[C@H](C)Nc1cc(NC(=O)N2CCCc3cc(CN4CCN(C)CC4=O)c(C=O)nc32)ncc1C#N [Compound 11, (S)-N-(5-cyano-4-((1-(methylthio)propan-2-yl)amino)pyridin-2-yl)-7-formyl-6-((4-methyl-2-oxopiperazin-1-yl)methyl)-3,4-dihydro-1,8-naphthyridine-1(2H)-carboxamide]
IC50 ([2]; 120 h incubation): 0.035 µM

Compound: CN1CCN(Cc2cc3c(nc2C=O)N(C(=O)Nc2cc(NC4CCSCC4)c(C#N)cn2)CCC3)C(=O)C1 [Compound 20, N-(5-cyano-4-((tetrahydro-2H-thiopyran-4-yl)amino)pyridin-2-yl)-7-formyl-6-((4-methyl-2-oxopiperazin-1-yl)methyl)-3,4-dihydro-1,8-naphthyridine-1(2H)-carboxamide]
IC50 (FGFR4 kinase [1]): 4.4 nM | inhibitory effect on Hepatoma cell Hep3B compared with the reference compound [2]: better inhibitory effect | IC50 ([2]; 120 h incubation): 0.021 µM | exposure amount AUC0-24 h and maximum drug concentration in blood Cmax compared with the reference compound (PK analysis of rats; SD rats): significantly higher than the reference compound | AUC(0-t) (PK analysis of rats; SD rats): 2000 ng·h/mL | Cmax (PK analysis of rats; SD rats): 514 ng/mL

Compound: CN1CCN(Cc2cc3c(nc2C=O)N(C(=O)Nc2cc(NCC[S+](C)[O-])c(C#N)cn2)CCC3)C(=O)C1 (stereo not drawn) [Compound 27, N-(5-cyano-4-((2-(methyl-sulfinyl)ethyl)amino)pyridin-2-yl)-7-formyl-6-((4-methyl-2-oxopiperazin-1-yl)methyl)-3,4-dihydro-1,8-naphthyridine-1(2H)-carboxamide]
inhibitory effect on FGFR4 compared with the reference compound (FGFR4 kinase [3]): better inhibitory effect on FGFR4 than the reference compound | IC50 (FGFR4 kinase [1]): 2.4 nM | IC50 ([2]; 120 h incubation): 0.282 µM

Compound: CCSCCNc1cc(NC(=O)N2CCCc3cc(CN4CCN(C)CC4=O)c(C=O)nc32)ncc1C#N [Compound 71, N-(5-cyano-44 (2-(ethylthio)ethypamino)pyridin-2-yl)-7-formyl-64 (4-methyl-2-oxopiperazin-1-yl)methyl)-3,4-dihydro-1,8-naphthyridine-1 (2H)-carboxamide hydrochloride]
IC50 (FGFR4 kinase [1]): 2.4 nM | IC50 ([2]; 120 h): 0.049 µM | exposure amount AUC0-24 h and maximum drug concentration in blood Cmax compared with the reference compound (PK analysis of rats; SD rats): significantly higher than the reference compound | AUC(0-t) (PK analysis of rats; Sprague-Dawley (SD)): 1950 ng·h/mL | Cmax (PK analysis of rats; Sprague-Dawley (SD)): 657 ng/mL

Compound: CSCC(C)Nc1cc(NC(=O)N2CCCc3cc(CN4CCN(C)CC4=O)c(C=O)nc32)ncc1C#N (stereo not drawn) [Compound 82, N-(5-cyano-4-((1-(methyl-thio)propan-2-yl)amino)pyridin-2-yl)-7-formyl-6-((4-methyl-2-oxopiperazin-1-yl)methyl)-3,4-dihydro-1,8-naphthyridine-1(2H)-carboxamide]
inhibitory effect on Hepatoma cell Hep3B compared with the reference compound [2]: better inhibitory effect | IC50 ([2]; 120 h incubation): 0.02 µM

More lines, main results first:

IC50 ([2]; 120 h incubation): 0.028 µM
Compound: CSCCOc1cc(NC(=O)N2CCCc3cc(CN4CCN(C)CC4=O)c(C=O)nc32)ncc1C#N [Compound 2]

IC50 ([2]; 120 h incubation): 0.008 µM
Compound: CO[C@@H]1CCN(Cc2cc3c(nc2C=O)N(C(=O)Nc2cc(NCCSC)c(C#N)cn2)CCC3)C1=O [Compound 8, (R)-N-(5-cyano-4-((2-(methylthio)ethyl)amino)pyridin-2-yl)-7-formyl-6-((3-methoxy-2-oxopyrrolidin-1-yl)methyl)-3,4-dihydro-1,8-naphthyridine-1(2H)-carboxamide]
inhibitory effect on Hepatoma cell Hep3B compared with the reference compound [2]: better inhibitory effect

IC50 ([2]; 120 h incubation): 0.009 µM
Compound: CO[C@@H]1CCN(Cc2cc3c(nc2C=O)N(C(=O)Nc2cc(N[C@H](C)CSC)c(C#N)cn2)CCC3)C1=O [Compound 9, N-(5-cyano-4-(((R)-1-(methylthio)propan-2-yl)amino)pyridin-2-yl)-7-formyl-6-(((R)-3-methoxy-2-oxopyrrolidin-1-yl)methyl)-3,4-dihydro-1,8-naphthyridine-1(2H)-carboxamide]
inhibitory effect on Hepatoma cell Hep3B compared with the reference compound [2]: better inhibitory effect

IC50 ([2]; 120 h incubation): 0.029 µM | AUC(0-t) (PK analysis of rats; SD rats): 3670 ng·h/mL | Cmax (PK analysis of rats; SD rats): 936 ng/mL
Compound: CSCCNc1cc(NC(=O)N2CCCc3cc(CN4CCCCOC4=O)c(C=O)nc32)ncc1C#N [Compound 16, N-(5-cyano-4-((2-(methylthio)ethyl)amino)pyridin-2-yl)-7-formyl-6-((2-oxo-1,3-oxazepan-3-yl)methyl)-3,4-dihydro-1,8-naphthyridine-1(2H)-carboxamide]
exposure amount AUC0-24 h and maximum drug concentration in blood Cmax compared with the reference compound (PK analysis of rats; SD rats): significantly higher than the reference compound

IC50 (FGFR4 kinase [1]): 3 nM
Compound: CN1CCN(Cc2cc3c(nc2C=O)N(C(=O)Nc2cc(NCc4cncs4)c(C#N)cn2)CCC3)C(=O)C1 [Compound 55, N-(5-cyano-4-((thiazol-5-yl-methyl)amino)pyridin-2-yl)-7-formyl-6-((4-methyl-2-oxopiperazin-1-yl)methyl)-3,4-dihydro-1,8-naphthyridine-1(2H)-carboxamide]

IC50 (FGFR4 kinase [1]): 2.1 nM
Compound: Cc1ccc(CNc2cc(NC(=O)N3CCCc4cc(CN5CCN(C)CC5=O)c(C=O)nc43)ncc2C#N)s1 [Compound 58, N-(5-cyano-4-(((5-methyl-thiophen-2-yl)methyl)amino)pyridin-2-yl)-7-formyl-6-((4-methyl-2-oxopiperazin-1-yl)methyl)-3,4-dihydro-1,8-naphthyridine-1(2H)-carboxamide]
inhibitory effect on FGFR4 compared with the reference compound (FGFR4 kinase [3]): better inhibitory effect on FGFR4 than the reference compound

IC50 (FGFR4 kinase [1]): 2.1 nM
Compound: CN1CCN(Cc2cc3c(nc2C=O)N(C(=O)Nc2cc(NCc4cscn4)c(C#N)cn2)CCC3)C(=O)C1 [Compound 59, N-(5-Cyano-4-((thiazol-4-yl-methyl)amino)pyridin-2-yl)-7-formyl-6-((4-methyl-2-oxopiperazin-1-yl)methyl)-3,4-dihydro-1,8-naphthyridine-1(2H)-carboxamide]
inhibitory effect on FGFR4 compared with the reference compound (FGFR4 kinase [3]): better inhibitory effect on FGFR4 than the reference compound

IC50 (FGFR4 kinase [1]): 3 nM
Compound: CC(Nc1cc(NC(=O)N2CCCc3cc(CN4CCN(C)CC4=O)c(C=O)nc32)ncc1C#N)c1nccs1 (stereo not drawn) [Compound 60, N-(5-cyano-4-((1-(thiazol-2-yl)ethyl)amino)pyridin-2-yl)-7-formyl-6-((4-methyl-2-oxopiperazin-1-yl)methyl)-3,4-dihydro-1,8-naphthyridine-1(2H)-carboxamide]

IC50 ([2]; 120 h incubation): 0.026 µM
Compound: CN1CCN(Cc2cc3c(nc2C=O)N(C(=O)Nc2cc(NCc4ccsn4)c(C#N)cn2)CCC3)C(=O)C1 [Compound 68, N-(5-Cyano-4-((isothiazol-3-yl-methyl)amino)pyridin-2-yl)-7-formyl-6-((4-methyl-2-oxopiperazin-1-yl)methyl)-3-1,4-dihydro-1,8-naphthyridine-1(2H)-carboxamide]

IC50 ([2]; 120 h incubation): 0.06 µM
Compound: CSCCNc1cc(NC(=O)N2CCCc3cc(CN(C)C(=O)[C@H]4CCCO4)c(C=O)nc32)ncc1C#N [Compound 74, (R)-N-(5-cyano-4-((2-(methylthio)ethyl)amino)pyridin-2-yl)-7-formyl-6-((N-methyltetrahydrofuran-2-carboxamido)methyl)-3,4-dihydro-1,8-naphthyridine-1(2H)-carboxamide hydrochloride]
